Experimental data from patent publication US10017580B2, “Humanized anti-Tn-MUC1 antibodies and their conjugates” (ADC THERAPEUTICS S.A., priority 2014, dated 2018).

Assays:
[1] = test system: K562 human chronic myeloid leukaemia cells; experiment: K562 assay (MTT cytotoxicity of released compounds); type: cell-based; settings: drug incubation 1 hour or 96 hours (not specified which)
Experimental: K562 human chronic myeloid leukaemia cells were maintained in RPM1 1640 medium supplemented with 10% fetal calf serum and 2 mM glutamine at 37° C. in a humidified atmosphere containing 5% CO2 and were incubated with a specified dose of drug for 1 hour or 96 hours at 37° C. in the dark. The incubation was terminated by centrifugation (5 min, 300 g) and the cells were washed once with drug-free medium. Following the appropriate drug treatment, the cells were transferred to 96-well microtiter plates (10^4 cells per well, 8 wells per sample). Plates were then kept in the dark at 37° C. in a humidified atmosphere containing 5% CO2. The assay is based on the ability of viable cells to reduce a yellow soluble tetrazolium salt, 3-(4,5-dimethylthiazol-2-yl)-2,5-diphenyl-2H-tetrazolium bromide (MTT, Aldrich-Sigma), to an insoluble purple formazan precipitate. Following incubation of the plates for 4 days (to allow control cells to increase in number by approximately 10 fold), 20 μL of MTT solution (5 mg/mL in phosphate-buffered saline) was added to each well and the plates further incubated for 5 h. The plates were then centrifuged for 5 min at 300 g and the bulk of the medium pipetted from the cell pellet leaving 10-20 μL per well. […] The optical density was then read at a wavelength of 550 nm on a Titertek Multiscan ELISA plate reader, and a dose-response curve was constructed. […]

Tn-MUC1 (16TR-MUC1-Tn) = experiment: Tn-MUC1 binding ELISA (protocol 4); set-up: species or system human; settings: ELISA on 16TR-MUC1-Tn coated plate
[2] = test system: ZR-75-1 cell line, which expresses Tn-MUC1; experiment: ZR-75-1 cell binding assay by flow cytometry (protocol 6); settings: flow cytometry, live cells
Experimental: Protocol 6: ZR-75-1 Cell Binding Assay by Flow Cytometry Materials • Wash solution: PBS 0.1% (w/v) sodium azide • Binding buffer: PBS, 10% normal goat serum, 0.1% (w/v) sodium azide) • 96 well U-well microplate Protocol
Exponentially growing cells are suspended by incubation with cell dissociation buffer enzyme-free, Hanks-based (Gibco 13150-016) following the manufacturer's instructions. A cell count/viability is done on a dilution of 10 ul cells+Trypan Blue, 10 ul, with a haemocytomer. The suspension is centrifuged and the cell pellet re-suspended in binding buffer at 3×10^6 per ml. If significant levels of aggregates are present in the cell count, the suspension is filtered to remove aggregates. The cell suspension is dispensed (50 ul/well) in 96 well U-bottom plates and cooled on ice for 10 minutes. Primary antibody (50 ul/well) diluted in binding buffer (typically 1 ug per ml or less) is added to each well and incubated at 4° C. for 1 hour. […] Cells are then re-suspended in PBS if reading immediately or fixed in 100 ul of paraformaldehyde (2% (w/v) in PBS) and analysed with by flow cytometer (Accuri C6), gating on live cells which have a lower Fixable Viability Dye MFI compared to dead cells.
IgG binding potency to Tn-MUC1 was measured as per protocol 4 and binding to the ZR-75-1 cell line, which expresses Tn-MUC1, was measured as per protocol 6.

[3] = Thermal denaturation assay (protocol 5); type: physicochemical; settings: 50% inactivation temperature, 10 minutes heating, read by antigen-binding ELISA

Sequence of Tn-MUC1 (16TR-MUC1-Tn) (P15941 141-460 limits assumed): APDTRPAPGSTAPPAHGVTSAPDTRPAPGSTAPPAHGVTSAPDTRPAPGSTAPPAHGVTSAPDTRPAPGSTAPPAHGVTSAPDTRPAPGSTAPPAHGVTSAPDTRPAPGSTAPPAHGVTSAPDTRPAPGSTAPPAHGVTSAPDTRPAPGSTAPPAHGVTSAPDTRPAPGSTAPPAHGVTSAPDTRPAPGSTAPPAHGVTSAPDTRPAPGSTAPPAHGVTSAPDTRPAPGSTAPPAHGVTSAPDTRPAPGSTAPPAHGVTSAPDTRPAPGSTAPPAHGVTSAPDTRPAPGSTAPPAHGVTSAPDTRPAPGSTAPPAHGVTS

Row | Tn-MUC1 binding EC50 (Tn-MUC1 (16TR-MUC1-Tn)) | ZR-75-1 cell binding EC50 [2] | Molecule | IC50 [1] | Tm [3]
1 | – | – | COc1cc2c(cc1OCCCOc1cc3c(cc1OC)C(=O)N1C=C(C)C[C@H]1C=N3)N=C[C@@H]1CC(C)=CN1C2=O [Compound RelE] | 0.425 nM | –
2 | 0.0311 µg/mL | 0.02834 µg/mL | Mouse 5E5: anti-Tn MUC 1 antibody comprising a VH domain according to SEQ ID NO. 1 and a VL domain according to SEQ ID NO. 30 [reference compound] | – | 69.97 °C
